Several values for one entry are separate records, joined by “and”; a condition that tells them apart may be missing. Equal entries are not always repeated.
What was measured:
HCV pseudoparticles = experiment: HCV pseudoparticle (HCVpp) entry assay in Huh7 hepatoma cells, luciferase readout; type: cell-based, hepatitis C virus; conditions: for luciferase units, HCV entry: duplicates; for % of control at ~30 uM: percentage of hepatitis C virus cellular entry at 30 μM peptide vs uninhibited control
Procedure, shortened: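 Huh7 cells were pre-treated with peptide for 1 h at 37 °C before exposure to HCV E1/E2-pseudotyped HIV luciferase particles made in 293T cells, followed by 72 h culture and luciferase readout. Peptides were tested at 10 points, 3-fold, from 100 ug/ml; particles lacking envelope served as non-specific entry control.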

[1] = system: amphotropic murine leukemia virus; experiment: AMLV pseudotyped virus entry counter-screen, same infection protocol; type: cell-based; conditions: for AMLVpp % inh: peptide library screen, cell entry inhibition vs uninhibited control; for luciferase units, AMLV entry: duplicates
Protocol: Infection of hepatoma cell lines with HCV pseudotype particles and screen for inhibitory peptides. The hepatoma cells, Huh7, was seeded at 8000 cells in 90 ul medium in 96-well plate. In the case of the inhibitor screen, the inhibitor was incubated with cells for one hour at 37° C. and then 50 ul viral supernatant was added to the cells 24 hours after seeding. The viral stock was pre-tittered and diluted to yield approximately 10,000 to 20,000 RLU. The cells were incubated at 37° C. with 5% CO2 for additional 72 hours and were harvested for luciferase assay. Peptide stocks were prepared in 100% DMSO at 10 mg/ml and were first screened at 100 ug/ml and then a dose responsive curve was generated with 10 points 3-fold titration starting from 100 ug/ml.
The specificity of the peptides were counter-screened with AMLV and HIV pseudotyped viruses using the same infection protocol.

[2] = peptide library screen, first screened at 100 ug/ml, cell entry inhibition vs uninhibited control
[3] = 0.1 nM of peptide (printed for three rows), two values per peptide and row
[4] = 0.3 nM of peptide, two values per peptide
[5] = 1 nM of peptide, two values per peptide
[6] = 3 nM of peptide, two values per peptide
[7] = 10 nM of peptide, two values per peptide
[8] = 30 nM of peptide, two values per peptide
[9] = 100 nM of peptide, two values per peptide
[10] = 300 nM of peptide, two values per peptide
[11] = 10000 nM of peptide, two values per peptide
[12] = 30000 nM of peptide, two values per peptide
[13] = truncated peptides tested at 50 uM in 1% DMSO

T-R-G-E-R-C-N-L-E-D-R-D-R-S-E-L [SEQ ID NO: 68]
HCVpp % inh (HCV pseudoparticles; [2]): 13% | AMLVpp % inh [1]: −7%

A-I-K-W-E-Y-V-L-L-L-F-L-L [SEQ ID NO: 85]
% control (HCVpp entry), alanine scanning (HCV pseudoparticles; [3]): 79 % control and 81 % control and 101 % control and 74 % control and 113 % control and 112 % control | % control (HCVpp entry), alanine scanning (HCV pseudoparticles; [4]): 79 % control and 96 % control | % control (HCVpp entry), alanine scanning (HCV pseudoparticles; [5]): 95 % control and 83 % control | % control (HCVpp entry), alanine scanning (HCV pseudoparticles; [6]): 71 % control and 88 % control | % control (HCVpp entry), alanine scanning (HCV pseudoparticles; [7]): 90 % control and 107 % control | % control (HCVpp entry), alanine scanning (HCV pseudoparticles; [8]): 62 % control and 57 % control | luciferase units, HCV entry (HCV pseudoparticles; 0.04115226 uM of peptide): 7203 luciferase units and 6444 luciferase units | % control (HCVpp entry), alanine scanning (HCV pseudoparticles; [9]): 45 % control and 50 % control | % control (HCVpp entry), alanine scanning (HCV pseudoparticles; [10]): 18 % control and 22 % control | luciferase units, HCV entry (HCV pseudoparticles; 0.3703704 uM of peptide): 3658 luciferase units and 3430 luciferase units | luciferase units, HCV entry (HCV pseudoparticles; 1.111111 uM of peptide): 4380 luciferase units and 2918 luciferase units | luciferase units, HCV entry (HCV pseudoparticles; 3.333333 uM of peptide): 2239 luciferase units and 2490 luciferase units | luciferase units, HCV entry (HCV pseudoparticles; 10 uM of peptide): 3393 luciferase units and 2865 luciferase units | % control (HCVpp entry), alanine scanning (HCV pseudoparticles; [11]): 13 % control and 18 % control | % control (HCVpp entry), alanine scanning (HCV pseudoparticles; [12]): 70 % control and 103 % control | % of control at ~30 uM (HCV pseudoparticles): 20% | luciferase units, AMLV entry ([1]; 0.01371742 uM of peptide (three lines)): 55532 luciferase units and 43767 luciferase units and 32138 luciferase units and 44812 luciferase units and 41172 luciferase units and 40068 luciferase units | luciferase units, AMLV entry ([1]; 0.04115226 uM of peptide): 32390 luciferase units and 42604 luciferase units | luciferase units, AMLV entry ([1]; 0.1234568 uM of peptide): 41483 luciferase units and 44739 luciferase units | luciferase units, AMLV entry ([1]; 0.3703704 uM of peptide): 44659 luciferase units and 43073 luciferase units | luciferase units, AMLV entry ([1]; 1.111111 uM of peptide): 42996 luciferase units and 48628 luciferase units | luciferase units, AMLV entry ([1]; 3.333333 uM of peptide): 92146 luciferase units and 118949 luciferase units | luciferase units, AMLV entry ([1]; 10 uM of peptide): 129890 luciferase units and 172763 luciferase units | luciferase units, AMLV entry ([1]; 30 uM of peptide): 72040 luciferase units and 83257 luciferase units

Y-E-V-R-N-V-S-G-V-Y-H-V-T-N-D-C [SEQ ID NO: 3]
HCVpp % inh (HCV pseudoparticles; [2]): 35% | AMLVpp % inh [1]: 18%

N-W-A-K-V-L-I-V-M-L-L-F-A-G-V-D [SEQ ID NO: 28]
HCVpp % inh (HCV pseudoparticles; [2]): 13% | AMLVpp % inh [1]: −1%

V-M-L-L-F-A-G-V-D-G-G-T-Y-V-T-G [SEQ ID NO: 29]
HCVpp % inh (HCV pseudoparticles; [2]): −22% | AMLVpp % inh [1]: 11%

L-L-L-A-D-A-R-V-C-A-C-L-W-M-M-L [SEQ ID NO: 79]
HCVpp % inh (HCV pseudoparticles; [2]): 77% | AMLVpp % inh [1]: 16%

A-L-T-P-T-L-A-A-R-N-A-S-V-P-T-T [SEQ ID NO: 10]
HCVpp % inh (HCV pseudoparticles; [2]): 53% | AMLVpp % inh [1]: 1%

A-Y-Y-S-W-V-G-N-W-A-K-V-L-I-V-M [SEQ ID NO: 27]
HCVpp % inh (HCV pseudoparticles; [2]): 39% | AMLVpp % inh [1]: −2%

V-V-D-V-Q-Y-L-Y-G-I-G-S-A-V-V-S [SEQ ID NO: 75]
HCVpp % inh (HCV pseudoparticles; [2]): 39% | AMLVpp % inh [1]: 44%

N-S-T-G-F-T-K-T-C-G-C-P-P-C-N-I [SEQ ID NO: 55]
HCVpp % inh (HCV pseudoparticles; [2]): 23% | AMLVpp % inh [1]: 3%

N-D-S-L-N-T-G-F-L-A-A-L-F-Y-V-H [SEQ ID NO: 37]
HCVpp % inh (HCV pseudoparticles; [2]): 14% | AMLVpp % inh [1]: 15%

G-H-V-T-G-H-R-M-A-W-D-M-M-M-N-W [SEQ ID NO: 20]
HCVpp % inh (HCV pseudoparticles; [2]): 43% | AMLVpp % inh [1]: 6%

L-F-S-P-G-S-S-Q-K-I-Q-L-V-N-T-N [SEQ ID NO: 33]
HCVpp % inh (HCV pseudoparticles; [2]): 61% | AMLVpp % inh [1]: −49%

A-R-N-A-S-V-P-T-T-T-I-R-R-H-V-D [SEQ ID NO: 11]
HCVpp % inh (HCV pseudoparticles; [2]): −26% | AMLVpp % inh [1]: 24%

A-I-K-W-E-Y-V-L-L-L-A-L-L (AIKWEYVLLLALL; HCV peptide) [SEQ ID NO: 95, Ala-scan]
% control (HCVpp entry), alanine scanning (HCV pseudoparticles; [3]): 82 % control and 89 % control and 76 % control and 114 % control and 97 % control and 113 % control | % control (HCVpp entry), alanine scanning (HCV pseudoparticles; [4]): 70 % control and 62 % control | % control (HCVpp entry), alanine scanning (HCV pseudoparticles; [5]): 72 % control and 91 % control | % control (HCVpp entry), alanine scanning (HCV pseudoparticles; [6]): 52 % control and 85 % control | % control (HCVpp entry), alanine scanning (HCV pseudoparticles; [7]): 47 % control and 64 % control | % control (HCVpp entry), alanine scanning (HCV pseudoparticles; [9]): 53 % control and 35 % control | % control (HCVpp entry), alanine scanning (HCV pseudoparticles; [10]): 13 % control and 18 % control | % control (HCVpp entry), alanine scanning (HCV pseudoparticles; [11]): 15 % control and 25 % control | % of control at ~30 uM (HCV pseudoparticles): 8%

A-I-K-W-E-Y-V-A-L-L-F-L-L (AIKWEYVALLFLL; HCV peptide) [SEQ ID NO: 93, Ala-scan]
% control (HCVpp entry), alanine scanning (HCV pseudoparticles; [3]): 91 % control and 83 % control and 80 % control and 104 % control and 134 % control and 81 % control | % control (HCVpp entry), alanine scanning (HCV pseudoparticles; [4]): 86 % control and 105 % control | % control (HCVpp entry), alanine scanning (HCV pseudoparticles; [5]): 85 % control and 87 % control | % control (HCVpp entry), alanine scanning (HCV pseudoparticles; [6]): 78 % control and 87 % control | % control (HCVpp entry), alanine scanning (HCV pseudoparticles; [7]): 71 % control and 67 % control | % control (HCVpp entry), alanine scanning (HCV pseudoparticles; [8]): 58 % control and 51 % control | % control (HCVpp entry), alanine scanning (HCV pseudoparticles; [9]): 47 % control and 42 % control | % control (HCVpp entry), alanine scanning (HCV pseudoparticles; [10]): 32 % control and 27 % control | % control (HCVpp entry), alanine scanning (HCV pseudoparticles; [11]): 41 % control and 32 % control | % control (HCVpp entry), alanine scanning (HCV pseudoparticles; [12]): 32 % control | % of control at ~30 uM (HCV pseudoparticles): 13%

A-I-K-W-E-Y-V-L-L-L-K-L-L (AIKWEYVLLLKLL; HCV peptide) [SEQ ID NO: 135]
% control (HCVpp entry), lysine scanning (HCV pseudoparticles; [4]): 72 % control and 99 % control | % control (HCVpp entry), lysine scanning (HCV pseudoparticles; [5]): 76 % control and 84 % control | % control (HCVpp entry), lysine scanning (HCV pseudoparticles; [6]): 67 % control and 74 % control | % control (HCVpp entry), lysine scanning (HCV pseudoparticles; [7]): 79 % control and 104 % control | % control (HCVpp entry), lysine scanning (HCV pseudoparticles; [8]): 90 % control and 89 % control | % control (HCVpp entry), lysine scanning (HCV pseudoparticles; [9]): 75 % control and 107 % control | % control (HCVpp entry), lysine scanning (HCV pseudoparticles; [10]): 87 % control and 70 % control | % control (HCVpp entry), lysine scanning (HCV pseudoparticles; [11]): 57 % control and 43 % control | % control (HCVpp entry), lysine scanning (HCV pseudoparticles; [12]): 37 % control and 29 % control

S-F-A-I-K-W-E-Y-V-L-L-L-F-L-L [SEQ ID NO: 104]
HCVpp % inh (HCV pseudoparticles; [13]): 91%

F-A-I-K-W-E-Y-V-L-L-L-F-L-L [SEQ ID NO: 105]
HCVpp % inh (HCV pseudoparticles; [13]): 95%
